We go through 14 molecules from paper PMC5596636 (ACS chemical neuroscience, 2016).

The target of one test is mMC3R (Mus musculus, UniProt P33033). Kind of test: cAMP-based β-galactosidase reporter agonist assay in HEK293 cells, mMC3R. To be noted: for mMC3R fold difference: EC50 of substituted peptide divided by EC50 of NDP-MSH, potency loss.
Test [1] addresses T1, mMC1R (Mus musculus, UniProt Q01727). To be noted: B16 murine melanoma cells; relative to α-MSH; cited from earlier work.
Test [2] has as its target T1, mMC1R. To be noted: B16 murine melanoma cells; relative to α-MSH; cited from earlier work. This is another data set of the same source.
The subject of the next test is rMC3R. Particulars: HEK293 cells expressing the rMC3R; relative to α-MSH; cited from earlier work.
For test [3], the target named is T1, mMC1R. Kind of test: cAMP-based β-galactosidase reporter agonist assay in HEK293 cells, mMC1R. Particulars: potency loss.
Another test deals with mMC5R (Mus musculus, UniProt P41149). Put plainly: cAMP-based β-galactosidase reporter agonist assay in HEK293 cells, mMC5R. Particulars: EC50 of substituted peptide divided by EC50 of NDP-MSH; potency loss.
Sequence of mMC5R (P41149 whole entry): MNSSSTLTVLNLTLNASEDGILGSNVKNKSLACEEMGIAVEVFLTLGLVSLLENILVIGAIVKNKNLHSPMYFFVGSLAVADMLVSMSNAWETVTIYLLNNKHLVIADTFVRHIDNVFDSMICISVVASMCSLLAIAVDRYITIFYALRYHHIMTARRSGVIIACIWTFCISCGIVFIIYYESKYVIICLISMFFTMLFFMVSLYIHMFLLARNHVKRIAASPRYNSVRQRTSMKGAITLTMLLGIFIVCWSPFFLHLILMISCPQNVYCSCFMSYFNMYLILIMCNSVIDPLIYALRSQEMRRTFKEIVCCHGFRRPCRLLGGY
For the next test, the target named is mMC4R (Mus musculus, UniProt P56450). Put plainly: cAMP-based β-galactosidase reporter agonist assay in HEK293 cells, mMC4R. Particulars: EC50 of substituted peptide divided by EC50 of NDP-MSH; potency loss.
Sequence of mMC4R (P56450 whole entry): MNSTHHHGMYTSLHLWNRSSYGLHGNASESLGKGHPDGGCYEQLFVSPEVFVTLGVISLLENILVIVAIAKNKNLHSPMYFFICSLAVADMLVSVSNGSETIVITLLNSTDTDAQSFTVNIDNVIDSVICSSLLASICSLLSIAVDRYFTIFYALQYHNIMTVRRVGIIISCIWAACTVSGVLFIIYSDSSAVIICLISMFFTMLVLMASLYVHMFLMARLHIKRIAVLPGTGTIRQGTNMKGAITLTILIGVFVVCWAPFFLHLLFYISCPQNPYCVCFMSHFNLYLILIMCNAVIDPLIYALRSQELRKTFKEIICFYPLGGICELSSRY
The mark [4] stands for this setting: EC50 of substituted peptide divided by EC50 of NDP-MSH.

T1 sequence (Q01727 whole entry): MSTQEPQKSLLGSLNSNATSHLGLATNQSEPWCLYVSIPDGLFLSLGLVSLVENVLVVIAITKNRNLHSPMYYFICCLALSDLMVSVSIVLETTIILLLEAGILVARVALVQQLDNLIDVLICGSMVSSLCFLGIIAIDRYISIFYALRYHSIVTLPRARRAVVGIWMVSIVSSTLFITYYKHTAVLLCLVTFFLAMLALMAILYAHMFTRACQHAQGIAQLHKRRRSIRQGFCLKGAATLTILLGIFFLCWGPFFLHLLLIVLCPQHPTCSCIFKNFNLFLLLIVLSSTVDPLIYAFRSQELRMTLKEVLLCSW
Sequence of mMC3R (P33033 whole entry): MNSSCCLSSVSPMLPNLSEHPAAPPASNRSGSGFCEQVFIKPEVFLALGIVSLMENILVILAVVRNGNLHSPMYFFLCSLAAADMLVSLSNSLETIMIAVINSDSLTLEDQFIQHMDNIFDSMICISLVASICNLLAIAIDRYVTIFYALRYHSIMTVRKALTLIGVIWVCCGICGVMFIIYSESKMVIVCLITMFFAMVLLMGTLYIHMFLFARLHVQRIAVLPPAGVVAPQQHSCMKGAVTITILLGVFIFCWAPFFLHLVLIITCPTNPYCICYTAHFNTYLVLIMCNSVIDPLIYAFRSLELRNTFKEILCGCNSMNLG

As a reminder, the EC50 is the midpoint of the concentration-response curve. The molecule `CCCC[C@H](NC(=O)[C@H](CO)NC(=O)[C@H](Cc1ccc(O)cc1)NC(=O)[C@H](C)NC(C)=O)C(=O)N[C@@H](CCC(=O)O)C(=O)N[C@@H](Cc1c[nH]cn1)C(=O)N[C@H](Cc1ccccc1)C(=O)N[C@@H](CCCNC(=N)N)C(=O)N[C@@H](Cc1c[nH]c2ccccc12)C(=O)NCC(=O)N[C@@H](CCCCN)C(=O)N1CCC[C@H]1C(=O)N[C@H](C(N)=O)C(C)C` [[Ala^1]NDP-MSH, Ac-Ala-Tyr-Ser-Nle-Glu-His-DPhe-Arg-Trp-Gly-Lys-Pro-Val-NH2] displayed an EC50 on mMC3R of 160 ± 17 pM.
Same read-out and setting: next, `CCCC[C@H](NC(=O)[C@H](CO)NC(=O)[C@H](C)NC(=O)[C@H](CO)NC(C)=O)C(=O)N[C@@H](CCC(=O)O)C(=O)N[C@@H](Cc1c[nH]cn1)C(=O)N[C@H](Cc1ccccc1)C(=O)N[C@@H](CCCNC(=N)N)C(=O)N[C@@H](Cc1c[nH]c2ccccc12)C(=O)NCC(=O)N[C@@H](CCCCN)C(=O)N1CCC[C@H]1C(=O)N[C@H](C(N)=O)C(C)C` [[Ala^2]NDP-MSH, Ac-Ser-Ala-Ser-Nle-Glu-His-DPhe-Arg-Trp-Gly-Lys-Pro-Val-NH2]: 220 ± 60 pM.
Regarding `CSCC[C@H](NC(=O)[C@H](CO)NC(=O)[C@H](C)NC(=O)[C@H](CO)NC(C)=O)C(=O)N[C@@H](CCC(=O)O)C(=O)N[C@@H](Cc1c[nH]cn1)C(=O)N[C@@H](Cc1ccccc1)C(=O)N[C@@H](CCCNC(=N)N)C(=O)N[C@@H](Cc1c[nH]c2ccccc12)C(=O)NCC(=O)N[C@@H](CCCCN)C(=O)N1CCC[C@H]1C(=O)N[C@H](C(N)=O)C(C)C` [[Ala^2]α-MSH], the “fold decreased binding affinity at the mMC1R” value on mMC1R [1] is reported as “equipotent”. Also, the “fold decreased tyrosinase potency at the mMC1R” value on mMC1R [2] is listed as “equipotent”. Moreover, the EC50 on mMC3R was 6420 ± 2560 pM. Also, at mMC3R (increased potency relative to α-MSH), the “fold more potent at the mMC3R compared to α-MSH” value was determined as 4 fold. Besides, the “fold decreased binding affinity at the rMC3R” value in the test with rMC3R is 7 fold. At mMC1R [3] (EC50 of substituted peptide divided by EC50 of α-MSH), this molecule registered a mMC1R fold difference of 7 fold.
Take `CCCC[C@H](NC(=O)[C@H](C)NC(=O)[C@H](Cc1ccc(O)cc1)NC(=O)[C@H](CO)NC(C)=O)C(=O)N[C@@H](CCC(=O)O)C(=O)N[C@@H](Cc1c[nH]cn1)C(=O)N[C@H](Cc1ccccc1)C(=O)N[C@@H](CCCNC(=N)N)C(=O)N[C@@H](Cc1c[nH]c2ccccc12)C(=O)NCC(=O)N[C@@H](CCCCN)C(=O)N1CCC[C@H]1C(=O)N[C@H](C(N)=O)C(C)C` [[Ala^3]NDP-MSH, Ac-Ser-Tyr-Ala-Nle-Glu-His-DPhe-Arg-Trp-Gly-Lys-Pro-Val-NH2]: at mMC3R, the EC50 is 340 ± 80 pM.
For the molecule `CC(=O)N[C@@H](CO)C(=O)N[C@@H](Cc1ccc(O)cc1)C(=O)N[C@@H](CO)C(=O)N[C@@H](C)C(=O)N[C@@H](CCC(=O)O)C(=O)N[C@@H](Cc1c[nH]cn1)C(=O)N[C@H](Cc1ccccc1)C(=O)N[C@@H](CCCNC(=N)N)C(=O)N[C@@H](Cc1c[nH]c2ccccc12)C(=O)NCC(=O)N[C@@H](CCCCN)C(=O)N1CCC[C@H]1C(=O)N[C@H](C(N)=O)C(C)C` [[Ala^4]NDP-MSH, Ac-Ser-Tyr-Ser-Ala-Glu-His-DPhe-Arg-Trp-Gly-Lys-Pro-Val-NH2], the mMC5R fold difference entry at mMC5R was “no differences”. For the same molecule, the mMC4R fold difference result at mMC4R is given as “no differences”. For the same molecule, on mMC3R, the EC50 stood at 360 ± 40 pM and the mMC3R fold difference result is “no differences”. At mMC1R [3] (setting [4]), this molecule displayed a mMC1R fold difference of 5 fold.
Regarding `CCCC[C@H](NC(=O)[C@H](CO)NC(=O)[C@H](Cc1ccc(O)cc1)NC(=O)[C@H](CO)NC(C)=O)C(=O)N[C@@H](CCC(=O)O)C(=O)N[C@@H](Cc1c[nH]cn1)C(=O)N[C@@H](C)C(=O)N[C@@H](CCCNC(=N)N)C(=O)N[C@@H](Cc1c[nH]c2ccccc12)C(=O)NCC(=O)N[C@@H](CCCCN)C(=O)N1CCC[C@H]1C(=O)N[C@H](C(N)=O)C(C)C` [[Ala^7]NDP-MSH], the mMC5R fold difference at mMC5R is recorded as 180 fold. This molecule registered a mMC4R fold difference at mMC4R of 2370 fold. Also, on mMC3R, it took 260000 ± 64000 pM to reach a half-maximal effect (EC50) and the mMC3R fold difference was 1080 fold. Further, on mMC1R [3] (setting [4]), the mMC1R fold difference was determined as 2350 fold.
Turning to `CCCC[C@H](NC(=O)[C@H](CO)NC(=O)[C@H](Cc1ccc(O)cc1)NC(=O)[C@H](CO)NC(C)=O)C(=O)N[C@@H](CCC(=O)O)C(=O)N[C@@H](Cc1c[nH]cn1)C(=O)N[C@H](Cc1ccccc1)C(=O)N[C@@H](CCCNC(=N)N)C(=O)N[C@@H](Cc1c[nH]c2ccccc12)C(=O)N[C@@H](C)C(=O)N[C@@H](CCCCN)C(=O)N1CCC[C@H]1C(=O)N[C@H](C(N)=O)C(C)C` [[Ala^10]NDP-MSH, Ac-Ser-Tyr-Ser-Nle-Glu-His-DPhe-Arg-Trp-Ala-Lys-Pro-Val-NH2], the mMC5R fold difference entry at mMC5R is “unaltered”. Moreover, the mMC4R fold difference result on mMC4R is listed as “unaltered”. At mMC3R, a half-maximal response (EC50) required 130 ± 60 pM and the mMC3R fold difference result is “unaltered”. At mMC1R [3] (setting [4]), the mMC1R fold difference entry is on record as “unaltered”.
Molecule `CSCC[C@H](NC(=O)[C@H](CO)NC(=O)[C@H](Cc1ccc(O)cc1)NC(=O)[C@H](CO)NC(C)=O)C(=O)N[C@@H](CCC(=O)O)C(=O)N[C@@H](Cc1c[nH]cn1)C(=O)N[C@@H](Cc1ccccc1)C(=O)N[C@@H](CCCNC(=N)N)C(=O)N[C@@H](Cc1c[nH]c2ccccc12)C(=O)N[C@@H](C)C(=O)N[C@@H](CCCCN)C(=O)N1CCC[C@H]1C(=O)N[C@H](C(N)=O)C(C)C` [[Ala^10]α-MSH] registered a concentration for a half-maximal effect (EC50) at mMC3R of 33000 ± 11000 pM.
Consider `CCCC[C@H](NC(=O)[C@H](CO)NC(=O)[C@H](Cc1ccc(O)cc1)NC(=O)[C@H](CO)NC(C)=O)C(=O)N[C@@H](CCC(=O)O)C(=O)N[C@@H](Cc1c[nH]cn1)C(=O)N[C@H](Cc1ccccc1)C(=O)N[C@@H](CCCNC(=N)N)C(=O)N[C@@H](Cc1c[nH]c2ccccc12)C(=O)NCC(=O)N[C@@H](C)C(=O)N1CCC[C@H]1C(=O)N[C@H](C(N)=O)C(C)C` [[Ala^11]NDP-MSH, Ac-Ser-Tyr-Ser-Nle-Glu-His-DPhe-Arg-Trp-Gly-Ala-Pro-Val-NH2], for which the mMC5R fold difference entry on mMC5R is “unaltered”. Moreover, the mMC4R fold difference result at mMC4R is reported as “unaltered”. For the same molecule, at mMC3R, a half-maximal response (EC50) required 170 ± 20 pM and the mMC3R fold difference entry is listed as “unaltered”. Also, at mMC1R [3] (setting [4]), the mMC1R fold difference result is “unaltered”.
On to `CSCC[C@H](NC(=O)[C@H](CO)NC(=O)[C@H](Cc1ccc(O)cc1)NC(=O)[C@H](CO)NC(C)=O)C(=O)N[C@@H](CCC(=O)O)C(=O)N[C@@H](Cc1c[nH]cn1)C(=O)N[C@@H](Cc1ccccc1)C(=O)N[C@@H](CCCNC(=N)N)C(=O)N[C@@H](Cc1c[nH]c2ccccc12)C(=O)NCC(=O)N[C@@H](C)C(=O)N1CCC[C@H]1C(=O)N[C@H](C(N)=O)C(C)C` [[Ala^11]α-MSH], for which the EC50 on mMC3R was 49000 ± 33000 pM.
As for `CCCC[C@H](NC(=O)[C@H](CO)NC(=O)[C@H](Cc1ccc(O)cc1)NC(=O)[C@H](CO)NC(C)=O)C(=O)N[C@@H](CCC(=O)O)C(=O)N[C@@H](Cc1c[nH]cn1)C(=O)N[C@H](Cc1ccccc1)C(=O)N[C@@H](CCCNC(=N)N)C(=O)N[C@@H](Cc1c[nH]c2ccccc12)C(=O)NCC(=O)N[C@@H](CCCCN)C(=O)N[C@@H](C)C(=O)N[C@H](C(N)=O)C(C)C` [[Ala^12]NDP-MSH, Ac-Ser-Tyr-Ser-Nle-Glu-His-DPhe-Arg-Trp-Gly-Lys-Ala-Val-NH2], the mMC4R fold difference at mMC4R was found to be 5 fold. The molecule further registered an EC50 at mMC3R of 360 ± 60 pM. For the same molecule, the mMC1R fold difference on mMC1R [3] (setting [4]) is listed as 4 fold.
Take `CSCC[C@H](NC(=O)[C@H](CO)NC(=O)[C@H](Cc1ccc(O)cc1)NC(=O)[C@H](CO)NC(C)=O)C(=O)N[C@@H](CCC(=O)O)C(=O)N[C@@H](Cc1c[nH]cn1)C(=O)N[C@@H](Cc1ccccc1)C(=O)N[C@@H](CCCNC(=N)N)C(=O)N[C@@H](Cc1c[nH]c2ccccc12)C(=O)NCC(=O)N[C@@H](CCCCN)C(=O)N[C@@H](C)C(=O)N[C@H](C(N)=O)C(C)C` [[Ala^12]α-MSH]: on mMC1R [1], the “fold decreased binding affinity at the mMC1R” value is given as 10 fold. The EC50 on mMC3R turned out to be 43000 ± 14000 pM.
As for `CCCC[C@H](NC(=O)[C@H](CO)NC(=O)[C@H](Cc1ccc(O)cc1)NC(=O)[C@H](CO)NC(C)=O)C(=O)N[C@@H](CCC(=O)O)C(=O)N[C@@H](Cc1c[nH]cn1)C(=O)N[C@H](Cc1ccccc1)C(=O)N[C@@H](CCCNC(=N)N)C(=O)N[C@@H](Cc1c[nH]c2ccccc12)C(=O)NCC(=O)N[C@@H](CCCCN)C(=O)N1CCC[C@H]1C(=O)N[C@@H](C)C(N)=O` [[Ala^13]NDP-MSH, Ac-Ser-Tyr-Ser-Nle-Glu-His-DPhe-Arg-Trp-Gly-Lys-Pro-Ala-NH2], the mMC5R fold difference result at mMC5R is recorded as “unaltered”. For the same molecule, on mMC4R, the mMC4R fold difference entry is “unaltered”. In addition, at mMC3R, a half-maximal effect (EC50) was put at 300 ± 60 pM and the mMC3R fold difference result is recorded as “unaltered”. Moreover, the mMC1R fold difference result at mMC1R [3] (setting [4]) is “unaltered”.
Take `CSCC[C@H](NC(=O)[C@H](CO)NC(=O)[C@H](Cc1ccc(O)cc1)NC(=O)[C@H](CO)NC(C)=O)C(=O)N[C@@H](CCC(=O)O)C(=O)N[C@@H](Cc1c[nH]cn1)C(=O)N[C@@H](Cc1ccccc1)C(=O)N[C@@H](CCCNC(=N)N)C(=O)N[C@@H](Cc1c[nH]c2ccccc12)C(=O)NCC(=O)N[C@@H](CCCCN)C(=O)N1CCC[C@H]1C(=O)N[C@@H](C)C(N)=O` [[Ala^13]α-MSH]: the EC50 on mMC3R turned out to be 42000 ± 26000 pM.
